Laboratory results published in patent US5136076A, “Process for the preparation of amino acid-derived enatiomeric compounds” (Societe Civile Bioprojet, priority 1987, dated 1992).
Values belong to the compound of their own block, whether it stands above or below them.

What was measured:
enkephalinase [1] = target: T1, enkephalinase (Mus musculus, UniProt Q61391); assay: Enkephalinase inhibition in vitro on striatum membranes (Table 1 (a)); format: biochemical
T1 construct: Activity measured on striatum membranes according to Llorens et al., J; from tissue; host or cells: striatum membranes
T1 sequence (Q61391 1-750): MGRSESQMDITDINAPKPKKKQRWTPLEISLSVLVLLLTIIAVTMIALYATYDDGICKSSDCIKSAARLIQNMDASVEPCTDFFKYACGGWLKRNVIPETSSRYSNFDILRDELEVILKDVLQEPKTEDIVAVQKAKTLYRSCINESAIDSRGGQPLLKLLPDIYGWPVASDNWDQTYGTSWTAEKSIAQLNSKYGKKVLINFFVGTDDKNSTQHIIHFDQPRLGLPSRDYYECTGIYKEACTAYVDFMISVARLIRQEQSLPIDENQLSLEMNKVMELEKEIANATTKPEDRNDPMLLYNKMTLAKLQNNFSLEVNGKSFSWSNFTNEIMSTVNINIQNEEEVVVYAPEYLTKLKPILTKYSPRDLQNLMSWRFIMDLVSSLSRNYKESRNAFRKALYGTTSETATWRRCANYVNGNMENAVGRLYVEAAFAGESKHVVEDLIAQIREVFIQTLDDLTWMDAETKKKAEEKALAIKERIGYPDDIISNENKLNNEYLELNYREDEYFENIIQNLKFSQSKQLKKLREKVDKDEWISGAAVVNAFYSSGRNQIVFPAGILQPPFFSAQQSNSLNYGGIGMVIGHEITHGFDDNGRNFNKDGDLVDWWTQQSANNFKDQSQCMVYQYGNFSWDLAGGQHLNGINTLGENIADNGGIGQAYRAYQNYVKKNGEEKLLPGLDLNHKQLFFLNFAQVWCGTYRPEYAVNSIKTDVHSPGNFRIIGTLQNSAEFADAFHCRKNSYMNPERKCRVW
Description: (§1) Dosage of `enkephalinase` activity and angiotensin convertase (ACE) activity with determination of the effect of inhibitors both in vitro and on mouses in vivo: inhibition of the same enzymes and protection of natriuretic auricular factor.
(§2) ENKEPHALINASE AND ACE INHIBITING ACTIVITIES IN IN VITRO AND IN VIVO STRIATUM
(a)Activity measured on striatum membranes according to Llorens et al., J

enkephalinase [2] = assay: Enkephalinase inhibition in vivo in mouse striatum (Table 1 (b)); conditions: 30 mn after i.v. administration
Description: as §1, §2
(b)Activity measured in mouse striatum 30 mn after i.v. administration
according to LlorensCortes et al., Eur. J. Pharmacol., 1985, 119, 183.

[3] = target: T2, ACE (angiotensin convertase) (Mus musculus, UniProt P09470); assay: ACE inhibition in vitro on mouse striatum membranes (Table 1 (c)); format: biochemical
T2 construct: Activities measured on mouse striatum membranes in vitro or 30; from tissue; host or cells: mouse striatum (membranes)
T2 sequence (P09470 35-1312): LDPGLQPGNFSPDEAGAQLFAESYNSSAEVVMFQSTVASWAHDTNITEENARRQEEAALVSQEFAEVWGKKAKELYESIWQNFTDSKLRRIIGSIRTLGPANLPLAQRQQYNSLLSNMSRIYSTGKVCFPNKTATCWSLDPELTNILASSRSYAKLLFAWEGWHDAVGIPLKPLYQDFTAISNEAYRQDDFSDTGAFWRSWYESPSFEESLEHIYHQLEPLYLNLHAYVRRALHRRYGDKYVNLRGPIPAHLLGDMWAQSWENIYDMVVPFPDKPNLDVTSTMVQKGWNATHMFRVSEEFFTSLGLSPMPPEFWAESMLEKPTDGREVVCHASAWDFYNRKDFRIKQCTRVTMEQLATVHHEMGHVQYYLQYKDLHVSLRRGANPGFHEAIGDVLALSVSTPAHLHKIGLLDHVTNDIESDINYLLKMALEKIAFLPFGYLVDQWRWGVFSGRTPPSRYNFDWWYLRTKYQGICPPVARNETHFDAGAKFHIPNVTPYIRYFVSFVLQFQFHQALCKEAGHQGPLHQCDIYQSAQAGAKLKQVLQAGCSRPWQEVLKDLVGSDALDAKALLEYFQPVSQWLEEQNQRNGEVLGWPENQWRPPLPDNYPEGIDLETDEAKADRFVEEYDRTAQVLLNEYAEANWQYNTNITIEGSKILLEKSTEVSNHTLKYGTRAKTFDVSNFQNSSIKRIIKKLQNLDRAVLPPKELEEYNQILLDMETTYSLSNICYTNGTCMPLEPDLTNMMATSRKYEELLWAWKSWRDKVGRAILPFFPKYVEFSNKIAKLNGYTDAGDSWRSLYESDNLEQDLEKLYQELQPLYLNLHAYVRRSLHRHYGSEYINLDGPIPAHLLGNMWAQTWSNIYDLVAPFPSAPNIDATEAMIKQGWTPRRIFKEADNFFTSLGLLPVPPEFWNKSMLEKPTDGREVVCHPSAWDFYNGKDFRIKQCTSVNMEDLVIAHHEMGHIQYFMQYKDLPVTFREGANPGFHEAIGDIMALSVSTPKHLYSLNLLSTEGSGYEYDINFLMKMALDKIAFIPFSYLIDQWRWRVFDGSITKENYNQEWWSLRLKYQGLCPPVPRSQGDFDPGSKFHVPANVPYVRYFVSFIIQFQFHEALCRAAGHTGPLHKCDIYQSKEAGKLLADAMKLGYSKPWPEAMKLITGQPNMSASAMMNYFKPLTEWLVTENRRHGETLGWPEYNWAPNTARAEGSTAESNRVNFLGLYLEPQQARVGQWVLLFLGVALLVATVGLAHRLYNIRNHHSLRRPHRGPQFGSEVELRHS
Description: as §1, §2
(§3) (c) and (d)Activities measured on mouse striatum membranes in vitro or 30
(§4) mn after i.v. administration according to Yang and Neff, J. Neurochem, […]

[4] = target: T2, ACE (angiotensin convertase); assay: ACE inhibition in vivo, mouse striatum (Table 1 (d)); conditions: for ED50: iv, 0.5 h, read-out: ACE In vivo(d) (DE50, mg/kg)
Description: as §1, §2, §3, §4

[5] = cited from earlier work
[6] = test system: angiotensin conversion enzyme (ACE); conditions: cited from earlier work
renal enkephalinase = assay: Inhibition of linking between Acetorphan and renal enkephalinase after oral administration (Table 2 (a)); format: in vivo, mouse; conditions: kidney, 0.3 mg/kg oral, 90 minutes after administration
Description: as §1
(§5) ENKEPHALINASE INHIBITING ACTIVITIES AND PROTECTION OF NATRIURETIC AURICULAR FACTOR (ANF) IN THE KIDNEY IN VIVO
(a) Inhibition of the linking between […] Acetorphan and renal
enkephalinase measured according to S. de la Baume, M. Tuong, F. Brion, J
C. Schwartz (J.P.E.T. 1988, forthcoming) 90 minutes after oral
administration of compounds 1 or 2 at a dose of 0.3 mg/kg.

[7] = test system: natriuretic auricular factor (ANF) in the kidney; assay: Protection of natriuretic auricular factor (ANF) in the kidney in vivo (Table 2 (b)); parameters: species or system mouse; conditions: for Increase of ANF (%): renal 125I ANF 2 min after i.v. administration of 10^6 cpm, compound 0.3 mg/kg orally 90 min before, 0.3 mg/kg
Protocol: as §1, §5
(b) Increase in the renal level of ^125 I ANF, as measured 2 min afte
i.v. administration of 10^6 cpm to mouses having been given compounds
1 or 2, 90 min before (0.3 mg/kg, orally).
Compound 2 (0.3 mg/kg, p.o.) induces in the same test an increase of renal ^125 I ANF of 75±7% after 30 min and […] after 180 min.

mouses [8] = assay: Analgesic activity, plate jump test at 55° C.; format: in vivo, mouse
Protocol: III. ANALGESIC ACTIVITIES MEASURED ON PLATE JUMP TEST AT 55° C. AFTER ADMINISTRATION TO MOUSES.
(Eddy and Leimbach, J. Pharmacol. Exp. Ther. 1953, 107 385).

dogs = assay: Colic motive activity (motive index) after standard meal; format: in vivo, dog
Description: Motive index (as evaluated with a restraint gauge).
Influence of previous intravenous (i.v.) or oral (p.o.) administration of
compound or the variations of the colic motive index after standard meal

cats [9] = assay: Inhibition of stimulated gastric acid secretion; format: in vivo, cat; conditions: 0.5, 1.5 and 5 mg/kg i.v.; p<0.05
plasma enkephalinase = assay: Clinical pharmacology: plasma enkephalinase; format: in vivo, human; conditions: 30 mg oral, 1 hr after administration, vs placebo, p<0.001
Protocol: (§6) With healthy volunteers (9 male subjects) enkephalinase and natriuretic auricular factor (ANF) plasma levels as well as diuresis and natruresis are measured after oral administration of either a placebo, or (S) acetorphan.

plasma ANF = assay: Clinical pharmacology: plasma natriuretic auricular factor (ANF); format: in vivo, human; conditions: 30 mg oral, 1 hr after administration, vs placebo, p<0.05
Protocol: as §6

healthy volunteers = assay: Clinical pharmacology: diuresis and natriuresis; format: in vivo, human; conditions: 30 mg oral, between 2 and 8 hours after administration, p<0.05
Protocol: as §6

mouses [10] = assay: Subacute toxicity, 3 weeks oral; format: in vivo; conditions: 2 g/kg/day oral, mouse, as opposed to control
Protocol: Compound (1) was administered during 3 weeks to mouses at an oral dose of 2 g/kg/day.
Moreover, no signs of tolerance, habituation or other weaning phenomenon were observed on animals submitted to a reversibility test after treatment.

cats [11] = assay: Anti-inflammatory activity in experimental cholecystitis; format: in vivo, cat; conditions: 3 mg/kg i.v.
[12] = mouse, mouse striatum, 30 mn after i.v. administration

IC50 (enkephalinase [1]): 1.2 nM
IC50 [3]: 12 nM
ED50 [4, 12]: 4 mg/kg
SMILES: COC(=O)[C@H](C)NC(=O)[C@@H](CSC(C)=O)Cc1ccccc1 [(6), (S) N-/2-acetylthiomethyl-1-oxo-3-phenylpropyl/-(S)-alanine methyl ester]
Enkephalinase In vivo(b) (DE50, mg/kg) (enkephalinase [2]): 0.3 mg/kg

SMILES: O=C(O)CNC(=O)[C@H](CS)Cc1ccccc1 [(R) isomer]
analgesic activity ([5]; intracerebral, separate enantiomers of thiorphan): principally to the (R) isomer

SMILES: O=C(O)CNC(=O)[C@@H](CS)Cc1ccccc1 [(S) isomer]
ACE's inhibiting activity ([6]; separate enantiomers of thiorphan): almost exclusively attributable to the (S) isomer

SMILES: CC(=O)SCC(Cc1ccccc1)C(=O)NCC(=O)OCc1ccccc1 (single isomer, unassigned) [Compound (2)]
IC50 (enkephalinase [1]): 3 nM
Enkephalinase In vivo(b) (DE50, mg/kg) (enkephalinase [2]; 30 min): 0.4 mg/kg
IC50 [3]: 100 nM
ACE In vivo(d) (DE50, mg/kg) ([4]; mouse striatum, 30 mn after i.v. administration, 30 min): 10 mg/kg
Inhibition of enkephalinase (%) (renal enkephalinase): 54 ± 6%
increase of renal 125I ANF ([7]; 0.3 mg/kg p.o., after 30 min): 75±7%
Increase of ANF (%) [7]: 33 ± 3%
Reaction time (mouses [8]; 30 mg/kg oral, 1 h before test): 75 ± 5 s
Motive index, After meal (0/+2 h) (dogs; 5 mg/kg p.o.): 16.3 ± 2.5
Motive index, After meal (+2/10 h) (dogs; 5 mg/kg p.o.): 20.1 ± 3.7
Motive index, Before meal (-2/0) (dogs; 5 mg/kg p.o.): 6.2 ± 0.9
stimulation of gastric acid secretion induced by Pentagastrin, 2-deoxyglucose and histamin (cats [9]): significatively decreased
inhibition of plasma enkephalinase (plasma enkephalinase): 62%
increase of plasma ANF (plasma ANF): 50%
increase of diuresis (healthy volunteers): 42%
increase of natriuresis (healthy volunteers): 46%

SMILES: O=C(O)CNC(=O)C(CS)Cc1ccccc1 (racemic) [thiorphan]
inhibition of angiotensin conversion enzyme [6]: less powerful inhibitor of angiotensin conversion enzyme
cardiovascular activity ([5]; at a higher dose): at a higher dose, a cardiovascular activity
active dose systemically, times higher than Acetorphan ([5]; systemically, relative to Acetorphan i.v. (around 1 mg/kg)): about 50 times
analgesic properties ([5]; used intraveinously or intracerebroventricularly): analgesic properties

SMILES: CC(=O)SCC(Cc1ccccc1)C(=O)NCC(=O)OCc1ccccc1 (single isomer, unassigned) [Compound (1)]
IC50 (enkephalinase [1]): 2 nM
Enkephalinase In vivo(b) (DE50, mg/kg) (enkephalinase [2]; 30 min): 0.8 mg/kg
IC50 [3]: 5000 nM
ACE-inhibiting effect ([4]; mouse, in vivo): lack of ACE-inhibiting effect
ED50 [4, 12]: > 20 mg/kg
Inhibition of enkephalinase (%) (renal enkephalinase): 15 ± 6%
Increase of ANF (%) [7]: inactive
Organ weight and pathological examination (mouses [10]): no difference as opposed to control
Reaction time (mouses [8]; 5 mg/kg i.v., 20' before test): 85 ± 5 s
Reaction time (mouses [8]; 30 mg/kg oral, 1 h before test): 80 ± 6 s
Reaction time (mouses [8]; 100 mg/kg oral, 1 h before test): 140 ± 10 s
Motive index, After meal (0/+2 h) (dogs; 1 mg/kg i.v.): 15.2 ± 2.4
Motive index, After meal (+2/10 h) (dogs; 1 mg/kg i.v.): 18.3 ± 3.1
Motive index, Before meal (-2/0) (dogs; 1 mg/kg i.v.): 5.9 ± 0.7
Motive index, After meal (0/+2 h) (dogs; 10 mg/kg p.o.): 17.4 ± 2.7
Motive index, After meal (+2/10 h) (dogs; 10 mg/kg p.o.): 21.5 ± 4.6
Motive index, Before meal (-2/0) (dogs; 10 mg/kg p.o.): 6.4 ± 0.8
colic motricity as an answer to the intake of food (dogs; dogs, postprandial periods): potentiates an increase in colic motricity
stimulation of gastric acid secretion induced by Pentagastrin, 2-deoxyglucose and histamin (cats [9]): significatively decreased
hypersecretion induced by an inflammation of the gall bladder (cats [11]): significatively decreases hypersecretion

IC50 (enkephalinase [1]): 3 nM
IC50 [3]: 2000 nM
ED50 [4, 12]: > 20 mg/kg
SMILES: COC(=O)[C@H](C)NC(=O)[C@H](CSC(C)=O)Cc1ccccc1 [(5), (R) N-/2-acetylthiomethyl-1-oxo-3-phenyl propyl/-(S)-alanine methyl ester]
Enkephalinase In vivo(b) (DE50, mg/kg) (enkephalinase [2]): 0.9 mg/kg

SMILES: CC(=O)SCC(Cc1ccccc1)C(=O)NCC(=O)OCc1ccccc1 (racemic) [Acetorphan, (R,S) N-/2-acetylthiomethyl-1-oxo-3-phenyl propyl/-glycine benzyl ester]
dose active intraveinously ([5]; i.v.): around 1 mg/kg
